Results reported in patent US4372948A, “Derivative of saccharide and physiologically active agent containing the same” (Kureha Kagaku Kogyo Kabushiki Kaisha, priority 1980, dated 1983).

Columns and labels:
[1] = in vivo; conditions: mouse, in vivo, po, mice, 7 days observation, read-out: LD50, acute oral toxicity
[2] = test system: level of blood sugar; assay: Anti-hyperglycemia activity (reduction of blood sugar level); format: in vivo, rat (Wistar, streptozotocin); conditions: oral, 300 mg/kg
Outline: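 Streptozotocin-diabetic Wistar rats (60 mg/kg i.p., relapsed hyperglycemia after insulin) given compounds orally at 300 mg/kg in distilled water. Blood sugar measured in samples taken 3 and 6 h post-dose.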

[3] = test system: blood pressure; assay: Anti-hypertension activity (reduction of blood pressure); format: in vivo, rat (spontaneous hypertension); conditions: oral, 300 mg/kg
Outline: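 Spontaneously hypertensive rats dosed orally at 300 mg/kg in distilled water. Blood pressure measured at 3 and 6 h. Activity taken as change from the value just before dosing.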

[4] = test system: Sarcoma-180; assay: Anti-tumour activity against Sarcoma-180; format: in vivo, mouse (ICR-JCL); conditions: Mus musculus, Sarcoma-180, po, 600 h, 10 times every other day, tumour weight on 25th day, read-out: Antitumour activity, inhibiting rate (I.R.)
Outline: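 ICR-JCL mice were given 1×10^6 Sarcoma-180 cells axillary; from 24 hours, compounds in saline were dosed orally at 500 mg/kg/time, 10 times every other day. Tumour nodes were weighed on day 25; inhibition rate = (1-T/C)×100(%) versus untreated tumour-bearing mice.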

[5] = test system: total cholesterol; assay: Anti-hyperlipemia activity, total cholesterol in blood; format: in vivo, rabbit (Japanese white male); conditions: oral, 300 mg/kg once; for Reduction of cholesterol level after 3 hrs.: negative = raising
Outline: (§1)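 Male Japanese white rabbits fed 1% cholesterol diet for 3 months received compound once orally at 300 mg/kg in water. Ear-vein blood: cholesterol by enzymatic method, beta-lipoprotein by colorimetry; values are change from predose at 3 or 6 h.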

[6] = test system: beta-lipoprotein; assay: Anti-hyperlipemia activity, beta-lipoprotein in blood; format: in vivo, rabbit (Japanese white male); conditions: oral, 300 mg/kg once
Outline: as §1

[7] = test system: carrageenin edema; assay: Anti-Carrageenin edema activity; format: in vivo, rat; conditions: Rattus norvegicus, po, 1000 mg/kg once, read-out: I.R. against carrageenin edema
Outline: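 Rats (10 per group) given compound orally once at 1000 mg/kg in distilled water, then 0.1 ml 1% carrageenin injected into right hind foot pad. Foot pad thickness measured at intervals; inhibition rate (%) = (1−T/C)×100 versus carrageenin-only animals.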

[8] = test system: cotton pellet granuloma; assay: Anti-granuloma activity (cotton pellet); format: in vivo, rat; conditions: Rattus norvegicus, po, 192 h, 7 days, read-out: I.R. against cotton pellet edema
Outline: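 Rats (6/group) implanted dorsally with two 30±1 mg cotton pellets; compounds given orally in distilled water at 1000 mg/kg/day once daily for 7 days. Granuloma excised on day 8 and dry weight measured; value is % inhibition of granuloma proliferation.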

[9] = test system: exudation; assay: Anti-exudation activity (air pouch, croton oil); format: in vivo, rat; conditions: Rattus norvegicus, po, 144 h, 5 days, read-out: I.R. against exudation
Outline: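 Rats, 6 per group, given subcutaneous dorsal air pouch injected with 0.5 ml sesame oil containing 1% croton oil. Compounds dosed orally in distilled water at 1000 mg/kg/day for five days; pouch exudate volume measured on day 6 and expressed as percent inhibition of exudation.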

[10] = test system: pseudo-escaping reaction to tail pressure; assay: Analgetic activity against mechanical stimulation of pressure; format: in vivo, mouse (ICR female); conditions: oral, 1000 mg/kg
[11] = test system: acetic acid writhing; assay: Analgetic activity against chemical stimulation of acetic acid (writhing); format: in vivo, mouse (ICR female); conditions: Mus musculus, po, 30 min before 0.6% acetic acid, read-out: I.R. of writhing
Excerpt: Rate of inhibition (I.R.) (%)=(1-T/C)×100
T represents the average number of writhing of the group of mice administered with the present compound and injected with acetic acid, and C represents the average number of writhing of the group of mice only injected with acetic acid (control).

[12] = test system: pyrexia (Saccharomyces cerevisiae); assay: Anti-pyrexia activity (yeast-induced); format: in vivo; conditions: Rattus norvegicus, oral, read-out: Rate of inhibiting pyrexia (I.R.)
Outline: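 Rats (n=6/group) received subcutaneous 20% Saccharomyces cerevisiae suspension, fasted 10 h, then dosed orally with 1000 mg/kg compound in distilled water. Rectal temperature was tracked at set intervals and the lowest value taken; inhibition rate computed against non-yeast and yeast-only control temperatures.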

SMILES	LD50 at 168 h [1] [mg/kg]	Reduced level of blood sugar after 3 hrs. [2] [mg/dL]	Reduced level of blood sugar after 6 hrs. [2] [mg/dL]	Reduced level of blood pressure after 3 hrs. [3] [mm Hg]	Reduced level of blood pressure after 6 hrs. [3] [mm Hg]	inhibition in vivo at 500 mg/kg [4] [%]	Reduction of cholesterol level after 3 hrs. [5] [mg/dL]	Reduction of cholesterol level after 6 hrs. [5] [mg/dL]	Reduction of beta-lipoprotein level after 3 hrs. [6] [mg/dL]	Reduction of beta-lipoprotein level after 6 hrs. [6] [mg/dL]	inhibition in vivo at 1000 mg/kg [7] [%]	inhibition in vivo at 1000 mg/kg/day [8] [%]	inhibition in vivo at 1000 mg/kg/day [9] [%]	Pseudo-escapting reaction pressure [10] [mmHg]	Pseudo-escapting reaction time [10] [s]	inhibition in vivo at 1000 mg/kg [11] [%]	inhibition in vivo at 1000 mg/kg [12] [%]
O=C(OCc1ccccc1)c1cccc(NC2O[C@H](CO)[C@@H](O[C@@H]3O[C@H](CO)[C@H](O)[C@H](O)[C@H]3O)[C@H](O)[C@H]2O)c1 (stereo partly drawn) [Compound 12, benzyl m-aminobenzoate-N-lactoside]	11500	52	95	16	18	37	7	48	121	124	18.7	8.4	10.7	90	42	33	17
O=C(OCc1ccccc1)c1ccc(NC2C[C@H](O)[C@H](O)CO2)cc1 (stereo partly drawn) [Compound 13, benzyl p-aminobenzoate-N-D-deoxyriboside]	9200	108	113	20	21	38	4	35	135	144	7	4.2	23.5	82	40	24	39
O=C(OCc1ccccc1)c1ccc(NC2O[C@H](CO)[C@@H](O)[C@H](O)[C@H]2O)cc1 (stereo partly drawn) [Compound 14, benzyl p-aminobenzoate-N-D-glucoside]	11700	65	93	24	24	42	3	38	143	146	5.1	23.3	6.9	92	44	39	56
O=C(OCc1ccccc1)c1ccc(NC2(CO)OC[C@@H](O)[C@@H](O)[C@@H]2O)cc1 (stereo partly drawn) [Compound 15, benzyl p-aminobenzoate-N-D-fructoside]	11000	72	85	18	20	43	-1	45	150	154	30.8	9	7.5	78	37	19	26
O=C(OC1CCCCC1)c1ccccc1NC1C[C@H](O)[C@H](O)CO1 (stereo partly drawn) [Compound 16, cyclohexyl o-aminobenzoate-N-D-deoxyriboside]	8800	125	140	20	20	37	0	33	104	110	18.6	6.5	5.7	87	39	26	48
O=C(OC1CCCCC1)c1cccc(NC2O[C@H](CO)[C@@H](O)[C@H](O)[C@@H]2O)c1 (stereo partly drawn) [Compound 17, cyclohexyl m-aminobenzoate-N-D-mannoside]	> 15000	140	145	23	28	49	-2	40	124	136	4.3	19.7	14.6	92	42	47	30
